# Results published in US9309263B2, “Fused multi-cyclic sulfone compounds as inhibitors of beta-secretase and methods of use thereof” (AMGEN INC., priority 2013, dated 2016).
# Where two headings read alike, the source gives them in different places.
# How the values were obtained:
# [1] = target: Beta Secretase enzyme (BACE) (Homo sapiens, UniProt P56817); assay: In vitro enzymatic BACE FRET assay; type: biochemical; settings: read-out: BACE1 FRET assay IC50
# Procedure: In Vitro Enzymatic BACE FRET (Fluorescence Resonance Energy Transfer) Assay (Enzyme Assay Data in the Example Table I)
# The assay buffer used in this screen is 0.05 M acetate, pH 4.2, 10% DMSO final, 100 uM genapol (which is a nonionic detergent, below its Critical Micelle Concentration). The Beta Secretase enzyme (0.2 nM) is pre-incubated for one hour with inhibitors, typically in about 1 uL of DMSO according to a serial dilution, are added thereto. This assay is effectively started by the addition of FRET substrate (50 nM) and the combination is incubated for one hour. The FRET assay is terminated with by addition of Tris buffer, which raises the pH to neutrality, and the fluorescence is determined. The FRET substrate is a peptide with commercially available fluorophore and quencher, on opposite sides of the BACE cleavage site. Proteolytic cleavage of the FRET substrate releases quenching of fluorescence (excitation 488 nm and […]).
# [2] = system: Aβ 40 in conditioned medium of cells stably expressing Amyloid Precursor Protein (APP); assay: In vitro BACE cell-based assay (Aβ 40 sandwich ELISA); settings: Homo sapiens, HEK293
# Procedure: In Vitro BACE Cell-Based Assay
# The cell-based assay measures inhibition or reduction of […] in conditioned medium of test compound treated cells expressing amyloid precursor protein.
# Cells stably expressing Amyloid Precursor Protein (APP) were plated at a density of 40K cells/well in 96 well plates (Costar). The cells were cultivated for 24 hours at 37° C. and 5% CO2 in DMEM supplemented with 10% FBS. The test compounds were then added to cells in 10-point dose response concentrations with the starting concentration being either 100 μM or 10 μM. The compounds were diluted from stock solutions in DMSO and the final DMSO concentration of the test compounds on cells was 0.1%. After 24 h of incubation with the test compounds the supernatant conditioned media was collected and the Aβ 40 levels were determined using a sandwich ELISA. The IC50 of the compound was calculated from the percent of control or percent inhibition of Aβ 40 as a function of the concentration of the test compound.
# The sandwich ELISA to detect Aβ 40 was performed in 96 well microtiter plates, which were pre-treated with goat anti-rabbit IgG (Pierce). The capture and detecting antibody pair that were used to detect Aβ 40 from cell supernatants were affinity purified pAb40 (Biosource) and biotinylated 6E10 (Signet Labs Inc.), respectively. The optimal concentration for the pAb40 antibody was 3 μg/ml in Superblock/TBS (Pierce) that was supplemented with 0.05% Tween 20 (Sigma). Optimal concentration for the detection antibody 6E10-biotinylated was 0.5 μg/ml in Superblock/TBS (Pierce) that had been supplemented with 2% normal goat serum and 2% normal mouse serum.
# Cellular supernatants were incubated with the capture antibody for 3 h at 4° C., followed by 3 wash steps in TBS-tween (0.05%). The detecting antibody incubation was for 2 h at 4° C., again followed by the wash steps as described previously. The final readout of the ELISA is Time-Resolved Fluorescence (counts per minute) using Delfia reagents Streptavidin-Europium and Enhancement solutions (Perkin Elmer) and the Victor 2 multilabel counter (Perkin Elmer).
# Cathepsin D (Cat D) = Cathepsin D (Cat D) (Homo sapiens, UniProt P07339); assay: In vitro enzymatic Cathepsin D (Cat D) FRET assay; type: biochemical
# Sequence of Cathepsin D (Cat D) (P07339 65-412, species assumed): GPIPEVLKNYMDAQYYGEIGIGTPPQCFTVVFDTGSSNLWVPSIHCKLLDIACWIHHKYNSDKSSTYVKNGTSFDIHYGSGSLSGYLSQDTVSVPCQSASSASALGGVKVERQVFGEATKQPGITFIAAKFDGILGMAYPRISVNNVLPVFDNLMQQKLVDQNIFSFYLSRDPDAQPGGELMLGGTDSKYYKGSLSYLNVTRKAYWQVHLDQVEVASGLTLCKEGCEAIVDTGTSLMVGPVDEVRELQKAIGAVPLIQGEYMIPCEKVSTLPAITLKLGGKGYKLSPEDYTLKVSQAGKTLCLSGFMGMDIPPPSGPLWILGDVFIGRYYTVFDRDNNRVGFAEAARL
# Procedure: In Vitro Enzymatic Cathepsin D (Cat D) FRET (Fluorescence Resonance Energy Transfer) Assay
# Recombinant Cat D was expressed in CHO cells. The assay buffer for CathepsinD is 0.05 M citrate pH 3.5, 10% DMSO final, 5 mM CHAPS. The Cat D enzyme (9 nM) is pre-incubated for one hour with inhibitors, typically in about 1 uL of DMSO according to a serial dilution, is added thereto. The assays are effectively started by the addition of different FRET substrates (20 nM for Cat D) and the combination is incubated for one hour. The FRET assay is terminated with by addition of Tris buffer, which raises the pH to neutrality, and the fluorescence is determined. The FRET substrate is a peptide with commercially available fluorophore and quencher, on opposite sides of the BACE cleavage site. The Cat D substrate peptide sequence is based on sequence #1 of Table 1 from Gulnik et al. FEBS Letters v413 p 379-384 1997. Proteolytic cleavage of the FRET substrate releases quenching of fluorescence (Cat D excitation 500 nm and emission 580 nm). […]
# See, for instance, examples 8, 12, 15, 16, 18, 21-23, 24, 25, 26, 29, 30, 32, 41-42, 45, 53, 54, 57, 63, 67-69, 72-74, 76, 79-81, 83 & 84 (to point to just a few; referring to data in Table 2). […] See, for instance, examples 8, 12, 15, 18, 21-23, 25, 29, 30, 32, 41-42, 45, 54, 57, 67-68, 72-73, 76, 80-81, 84, 86, 91-92 & 100 (to point out those from compound examples 1-100; and with reference to data in Table 2).
# [3] = average IC50, in vitro enzymatic BACE FRET assay
# [4] = average IC50, HEK cell assay, Aβ 40 readout
# [5] = Cathepsin D FRET assay, read-out: CatD IC50
# [6] = text summary referring to data in Table 2
# Sequence of Beta Secretase enzyme (BACE) (P56817 46-501): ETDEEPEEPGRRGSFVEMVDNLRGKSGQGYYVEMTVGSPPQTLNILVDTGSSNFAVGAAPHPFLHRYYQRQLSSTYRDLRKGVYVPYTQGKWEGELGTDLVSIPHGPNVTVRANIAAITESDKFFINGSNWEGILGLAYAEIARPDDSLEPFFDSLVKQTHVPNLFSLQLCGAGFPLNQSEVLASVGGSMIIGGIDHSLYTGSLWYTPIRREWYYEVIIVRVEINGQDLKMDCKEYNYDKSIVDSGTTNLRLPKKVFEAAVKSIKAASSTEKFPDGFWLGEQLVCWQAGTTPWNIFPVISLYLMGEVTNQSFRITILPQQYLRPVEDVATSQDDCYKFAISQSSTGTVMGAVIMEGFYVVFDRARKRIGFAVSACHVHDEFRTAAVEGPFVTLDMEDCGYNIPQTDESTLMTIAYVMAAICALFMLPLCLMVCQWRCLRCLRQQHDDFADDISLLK
SMILES,"IC50 [1, 3]","IC50 [2, 4]",IC50 (Cathepsin D (Cat D); [5]),IC50 ([1]; average IC50),"IC50 ([2]; HEK cells, average IC50)",IC50 (Cathepsin D (Cat D); read-out: CatD IC50),"IC50 ([2]; HEK cell, average IC50)",IC50 (Cathepsin D (Cat D); [6])
"COc1cnc(C(=O)Nc2ccc3c(c2)[C@@]2(CF)N=C(N)C(C)(C)S(=O)(=O)[C@@H]2CCO3)c(C)c1 [Example 152, N-((4aR,11bS)-2-amino-11b-(fluoromethyl)-3,3-dimethyl-4,4-dioxido-4a,5,6,11b-tetrahydro-3H-[1]benzoxepino[4,5-b][1,4]thiazin-10-yl)-5-methoxy-3-methyl-2-pyridinecarboxamide]",0.031 µM,0.075 µM,> 400 µM,,,,,
"CC1(C)C(N)=N[C@]2(C)c3cc(NC(=O)c4ncc(C#N)cc4Cl)ccc3OCC[C@H]2S1(=O)=O [Example 174, N-((4aR,11bR)-2-amino-3,3,11b-trimethyl-4,4-dioxido-4a,5,6,11b-tetrahydro-3H-[1]benzoxepino[4,5-b][1,4]thiazin-10-yl)-3-chloro-5-cyano-2-pyridinecarboxamide]",,,,0.002 µM,0.002 µM,1070 µM,,
"CC#C[C@@H](C)Oc1ccc(C(=O)Nc2ccc3c(c2)[C@@]2(C)N=C(N)C(C)(C)S(=O)(=O)[C@@H]2CCO3)nc1 (single isomer, unassigned) [Example 68]",,,,0.002 µM,,1990 µM,0.001 µM,> 1200 µM
"CC1(C)C(N)=N[C@]2(C)c3cc(NC(=O)c4ncc(Cl)cc4Cl)ccc3CCC[C@@H]2S1(=O)=O [Example 36, N-((4aS,11bR)-2-amino-3,3,11b-trimethyl-4,4-dioxido-3,4a,5,6,7,11b-hexahydrobenzo[3,4]cyclohepta[1,2-b][1,4]thiazin-10-yl)-3,5-dichloro-2-pyridinecarboxamide]",,,,0.062 µM,,> 400 µM,0.29 µM,
"C[C@H]1C[C@@H]2[C@](C)(N=C(N)C(C)(C)S2(=O)=O)c2cc(Nc3nccc4nc(OCc5ccn(C)n5)cnc34)ccc2O1 [Example 146, (4aR,6S,11bR)-3,3,6,11b-tetramethyl-N^~10^~-(2-((1-methyl-1H-pyrazol-3-yl)methoxy)pyrido[3,4-b]pyrazin-5-yl)-4a,5,6,11b-tetrahydro-3H-[1]benzoxepino[4,5-b][1,4]thiazine-2,10-diamine 4,4-dioxide]",0.005 µM,0.004 µM,804 µM,,,,,
"C[C@H]1C[C@@H]2[C@](C)(N=C(N)C(C)(C)S2(=O)=O)c2cc(NC(=O)c3cnc(OCc4ncco4)cn3)ccc2O1 [Example 76, N-((4aR,6S,11bR)-2-amino-3,3,6,11b-tetramethyl-4,4-dioxido-4a,5,6,11b-tetrahydro-3H-[1]benzoxepino[4,5-b][1,4]thiazin-10-yl)-5-(1,3-oxazol-2-ylmethoxy)-2-pyrazinecarboxamide]",,,,0.002 µM,,1050 µM,0.0009 µM,> 1200 µM
"CC1(C)C(N)=N[C@]2(C)c3cc(NC(=O)c4ncc(Cl)cc4Cl)ccc3OCC[C@H]2S1(=O)=O [Example 24, N-((4aR,11bR)-2-amino-3,3,11b-trimethyl-4,4-dioxido-4a,5,6,11b-tetrahydro-3H-[1]benzoxepino[4,5-b][1,4]thiazin-10-yl)-3,5-dichloro-2-pyridinecarboxamide]",,,,0.003 µM,,969 µM,0.001 µM,> 800 µM
"CC1(C)C(N)=N[C@]2(CF)c3cc(NC(=O)c4ccc(OC(F)F)cn4)ccc3OCC[C@@H]2S1(=O)=O [Example 122, N-((4aS,11bS)-2-amino-11b-(fluoromethyl)-3,3-dimethyl-4,4-dioxido-4a,5,6,11b-tetrahydro-3H-[1]benzoxepino[4,5-b][1,4]thiazin-10-yl)-5-(difluoromethoxy)-2-pyridinecarboxamide]",0.011 µM,0.013 µM,1030 µM,,,,,
"Cc1cc(Cl)cnc1C(=O)Nc1ccc2c(c1)[C@@]1(C)N=C(N)C(C)(C)S(=O)(=O)[C@@H]1C[C@H](C)O2 [Example 189, N-((4aR,6S,11bR)-2-amino-3,3,6,11b-tetramethyl-4,4-dioxido-4a,5,6,11b-tetrahydro-3H-[1]benzoxepino[4,5-b][1,4]thiazin-10-yl)-5-chloro-3-methyl-2-pyridinecarboxamide]",,,,0.003 µM,0.001 µM,191 µM,,
"CC1(C)C(N)=N[C@]2(C)c3cc(NC(=O)c4ncc(C(F)F)cc4Cl)ccc3OCC[C@H]2S1(=O)=O [Example 172, N-((4aR,11bR)-2-amino-3,3,11b-trimethyl-4,4-dioxido-4a,5,6,11b-tetrahydro-3H-[1]benzoxepino[4,5-b][1,4]thiazin-10-yl)-3-chloro-5-(difluoromethyl)-2-pyridinecarboxamide]",,,,0.012 µM,0.004 µM,> 400 µM,,
"CC1(C)C(N)=N[C@]2(C)c3cc(NC(=O)c4ccc(OCC#N)cn4)ccc3OCC[C@H]2S1(=O)=O [Example 126, N-((4aR,11bR)-2-amino-3,3,11b-trimethyl-4,4-dioxido-4a,5,6,11b-tetrahydro-3H-[1]benzoxepino[4,5-b][1,4]thiazin-10-yl)-5-(cyanomethoxy)-2-pyridinecarboxamide]",0.017 µM,0.034 µM,> 1.65 µM,,,,,
"CCc1cc(Cl)cnc1C(=O)Nc1ccc2c(c1)[C@@]1(C)N=C(N)C(C)(C)S(=O)(=O)[C@@H]1CCO2 [Example 31, N-((4aR,11bR)-2-amino-3,3,11b-trimethyl-4,4-dioxido-4a,5,6,11b-tetrahydro-3H-benzo[6,7]oxepino[4,5-b][1,4]thiazin-10-yl)-5-chloro-3-ethylpicolinamide]",,,,0.015 µM,,226 µM,0.016 µM,
Cc1cc(OC(F)F)cnc1C(=O)Nc1ccc2c(c1)[C@@]1(C)N=C(N)C(C)(C)S(=O)(=O)[C@@H]1CCS2 [Example 118],0.002 µM,0.002 µM,207 µM,,,,,
"Cc1cc(COc2cnc(C(=O)Nc3ccc4c(c3)[C@@]3(C)N=C(N)C(C)(C)S(=O)(=O)[C@@H]3C[C@H](C)O4)cn2)on1 [Example 78, N-((4aR,6S,11bR)-2-amino-3,3,6,11b-tetramethyl-4,4-dioxido-4a,5,6,11b-tetrahydro-3H-[1]benzoxepino[4,5-b][1,4]thiazin-10-yl)-5-((3-methyl-5-isoxazolyl)methoxy)-2-pyrazinecarboxamide]",,,,0.007 µM,,407 µM,0.026 µM,
"Cc1nc(OCC2CC2)cnc1C(=O)Nc1ccc2c(c1)[C@@]1(C)N=C(N)C(C)(C)S(=O)(=O)[C@@H]1CCO2 [Example 178, N-((4aR,11bR)-2-amino-3,3,11b-trimethyl-4,4-dioxido-4a,5,6,11b-tetrahydro-3H-benzo[6,7]oxepino[4,5-b][1,4]thiazin-10-yl)-5-(cyclopropylmethoxy)-3-methylpyrazine-2-carboxamide]",,,,0.01 µM,0.028 µM,586 µM,,
